Reference: ChEMBL document CHEMBL1201862, “PubChem BioAssay data set” (2004)
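Protocol summary: plate cells (96-well), add compound at 5 concentrations, incubate 48 h, interpolate endpoints linearly. GI50 = concentration required for 50% inhibition of growth.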 Activity calls are given as the source filed them. Rule as the data show it: active = GI50 up to about 1.1 µM and inactive = higher.

Legend:
Experiment in all cases: DTP human tumour cell line panel, 48 h
M14 = system: M14
NCI-H226 = system: NCI-H226
SK-MEL-2 = system: SK-MEL-2
RPMI-8226 = system: RPMI-8226
EKVX = system: EKVX
786-0 = system: 786-0
SF-295 = system: SF-295
IGROV-1 = system: IGROV-1
UO-31 = system: UO-31
HOP-92 = system: HOP-92
OVCAR-8 = system: OVCAR-8
HCT-116 = system: HCT-116
SK-MEL-28 = system: SK-MEL-28
HL-60 = system: HL-60
COLO 205 = system: COLO 205
MDA-MB-231 = system: MDA-MB-231
OVCAR-4 = system: OVCAR-4
OVCAR-3 = system: OVCAR-3
SF-268 = system: SF-268
SN12C = system: SN12C

Measured: GI50

CCC(NC1=NCCO1)c1cccs1 (centres undefined)
inactive: M14 19 µM | NCI-H226 20.3 µM | SK-MEL-2 15.5 µM | RPMI-8226 25.1 µM | EKVX 16.5 µM | 786-0 15.3 µM | SF-295 15.1 µM | IGROV-1 20.8 µM | UO-31 18.7 µM | HOP-92 17.4 µM | OVCAR-8 16.7 µM | HCT-116 14.1 µM | SK-MEL-28 15.6 µM | HL-60 18.6 µM | COLO 205 17.3 µM | MDA-MB-231 20.7 µM | OVCAR-4 23.9 µM | OVCAR-3 16.9 µM

CCN(CC)c1ccc2cc(C(=O)Nc3ccccn3)c(=N)oc2c1
inactive: SF-268 60.8 µM | M14 > 100 µM | NCI-H226 > 100 µM | SK-MEL-2 25.5 µM | RPMI-8226 > 100 µM | EKVX > 100 µM | 786-0 35.3 µM | IGROV-1 > 100 µM | HOP-92 > 100 µM | OVCAR-8 36.3 µM | HCT-116 55.5 µM | SK-MEL-28 > 100 µM | HL-60 > 100 µM | COLO 205 > 100 µM | MDA-MB-231 47.5 µM | SN12C > 100 µM | OVCAR-4 > 100 µM | OVCAR-3 > 100 µM

CC(=O)Nc1ncc2c(n1)-c1ccccc1OC2
inactive: SF-268 80.7 µM | M14 > 100 µM | NCI-H226 > 100 µM | SK-MEL-2 > 100 µM | RPMI-8226 > 100 µM | EKVX > 100 µM | 786-0 65.9 µM | SF-295 > 100 µM | IGROV-1 > 100 µM | UO-31 > 100 µM | HOP-92 > 100 µM | OVCAR-8 > 100 µM | HCT-116 > 100 µM | HL-60 > 100 µM | COLO 205 > 100 µM | MDA-MB-231 > 100 µM | SN12C > 100 µM | OVCAR-4 > 100 µM | OVCAR-3 > 100 µM

CC(C)(C)c1cc(-c2cc(C(C)(C)C)[nH]n2)[nH]n1
inactive: SF-268 > 100 µM | M14 > 100 µM | NCI-H226 > 100 µM | SK-MEL-2 > 100 µM | RPMI-8226 > 100 µM | EKVX > 100 µM | 786-0 > 100 µM | SF-295 > 100 µM | IGROV-1 > 100 µM | UO-31 > 100 µM | HOP-92 > 100 µM | HCT-116 > 100 µM | SK-MEL-28 > 100 µM | HL-60 46.8 µM | COLO 205 > 100 µM | MDA-MB-231 > 100 µM | SN12C > 100 µM | OVCAR-4 > 100 µM | OVCAR-3 > 100 µM
